Experimental data as given in publication PMC3027097 (Journal of Translational Medicine, 2011).

Experiments:
[1] = tested on: VEGF production in bovine aortic endothelial cells (ECs); assay: VEGF quantification by western blot, EC; format: cell-based; conditions: 6 hours of stimulation with hFN, peptides 10^-6 M, mean ± SEM
Method: VEGF production was measured as previously described [26]. Briefly, ECs were seeded at a density of 600000 per well in six well plates, serum starved overnight, seeded with c(RGDf[NMe]V) or RGDechiHCit (10^-6 M) and then stimulated with hFN for 6 hours.
Immunoblot analyses were performed as previously described and validated [23, 28]. […] Levels of VEGF were determined using an antibody raised against VEGF-165 (Santa Cruz Biotechnology) [26]. Experiments were performed in triplicate to ensure reproducibility. Data are presented as arbitrary densitometry units (ADU) after normalization for the total corresponding protein or actin as internal control [24].

[2] = tested on: ERK2 phosphorylation in EC; assay: hFN-induced ERK2 phosphorylation, western blot, EC; format: cell-based; conditions: densitometry
Method: (§1) In vitro studies were performed on cell cultures of ECs or VSMCs, cultured in Dulbecco's modified Eagle's medium (DMEM; Sigma-Aldrich, Milan, Italy) as previously described and validated. Cell culture plates were filled with 10 μg/cm^2 of human fibronectin (hFN, Millipore®, Bedford, MA, USA) as described. All experiments were performed in triplicate with cells between passages 5 and 9.
(§2) Immunoblot analyses were performed as previously described and validated. Mouse monoclonal antibodies to extracellular signal regulated kinase (ERK2) and phospho-ERK, anti-rabbit VEGF and actin were from Santa Cruz Biotecnology (Santa Cruz, CA, USA). Levels of VEGF were determined using an antibody raised against VEGF-165 (Santa Cruz Biotechnology). Experiments were performed in triplicate to ensure reproducibility. Data are presented as arbitrary densitometry units (ADU) after normalization for the total corresponding protein or actin as internal control.

WKY rats = assay: Wound healing assay, full-thickness skin wound; format: in vivo, rat
Method: (§3) Wound healing assay was performed on 14-week-old (weight 293 ± 21 g) normotensive WKY male rats (Charles River Laboratories, Calco (LC), Italy; n = 18), and Matrigel plugs experiments were carried out on 16-week-old (weight 33 ± 4 g) c57BL/6 mice (Charles River Laboratories, Milan, Italy; n = 13). All animal procedures were performed in accordance with the Guide for the Care and Use of Laboratory Animals published by the National Institutes of Health in the United States (NIH Publication No. 85- 23, revised 1996) and approved by the Ethics Committee for the Use of Animals in Research of "Federico II" University.
The rats (n = 18) were anesthetized using vaporized isoflurane (4%, Abbott) and maintained by mask ventilation (isoflurane 1.8%)[29]. The dorsum was shaved by applying a depilatory creme (Veet, Reckitt-Benckiser, Milano, Italy) and disinfected with povidone iodine scrub. […] Two operators blinded to the identity of the sample examined and measured wound areas every day, for 8 days. Direct measurements of wound region were determined by digital planimetry (pixel area), and subsequent analysis was performed using a computer-assisted image analyzer (ImageJ software, version 1.41, National Institutes of Health, Bethesda, MD, USA). Wound healing was quantified as a percentage of the original injury size. […]

[3] = tested on: bovine aortic endothelial cells (EC); assay: hFN-induced cell proliferation assay (cell number), EC; format: cell-based
Method: as §1
(§4) Cell cultures were prepared as previously described. Briefly, cells were seeded at density of 100000 per well in six-well plates, serum starved, pre-incubated at 37°C for 30' with c(RGDf[NMe]V) or RGDechiHCit (10^-6 M). Proliferation was induced using hFN (100 μg/ml). Cell number was measured at 3, 6 and 20 h after stimulation as previously described.

[4] = tested on: ERK2 phosphorylation in VSMC; assay: hFN-induced ERK2 phosphorylation, western blot, VSMC; format: cell-based; conditions: densitometry
Method: as §1, §2

c57BL/6 mice = assay: Matrigel plugs, EC infiltration by lectin staining; format: in vivo, mouse; conditions: s.c. Matrigel with VEGF and 10^-5M peptide, seven days, mean ± SEM
Method: as §3
Mice (n = 13), anesthetized as described above, were subcutaneously injected midway on the dorsal side, using sterile conditions, with 0.2 ml of Matrigel® basement matrix, pre-mixed with 10^-6M VEGF and 10^-5M c(RGDf[NMe]V) (n = 4), 10^-6M VEGF and 10^-5M RGDechiHCit (n = 5), or 10^-6M VEGF alone (n = 4). After seven days, mice were euthanized and the implanted plugs were harvested from underneath the skin, fixed in 10% neutral-buffered formalin solution and then embedded in paraffin. Invading ECs were identified and quantified by analysis of lectin immunostained sections, as described.
All tissues were cut in 5 μm sections and slides were counterstained with a standard mixture of hematoxylin and eosin. […]

[5] = tested on: vascular smooth muscle cells (VSMC); assay: hFN-induced cell proliferation assay (cell number), VSMC; format: cell-based
Method: as §1, §4

[6] = tested on: bovine aortic endothelial cells (ECs); assay: Endothelial Matrigel assay (tube formation); format: cell-based; conditions: hFN 100 μg/ml, peptides 10^-6 M, 37°C, mean ± SEM
Method: The formation of network-like structures by ECs on an extracellular matrix (ECM)-like 3D gel consisting of Matrigel® (BD Biosciences, Bedford, MA, USA), was performed as previously described and validated [27, 28]. The six-well multidishes were coated with growth factor-reduced Matrigel in according to the manufacturer's instructions. ECs (5×10^4) were seeded with c(RGDf[NMe]V) or RGDechiHCit (10^-6 M), in the absence (negative control) or presence (100 μg/ml) of hFN [24]. Cells were incubated at 37°C for 24h in 1 ml of DMEM. […] Network formation was observed using an inverted phase-contrast microscope (Zeiss). Representative fields were taken, and the average of the total number of complete tubes formed by cells was counted in 15 random fields by two independent investigators.

[7] = human serum (Lonza, Basel, Switzerland); conditions: 37°C, up to 24h

Row | Compound | VEGF expression levels in EC [1] | hFN-induced phosphorylation of ERK2 in EC [2] | wound healing (closure of full-thickness wounds) (WKY rats; pluronic gel 30% containing 10^-6 M peptide placed daily on 20 mm wound, 8 days) | wound histology (WKY rats; wounds excised 8 days after surgery) | EC proliferation ([3]; hFN 100 μg/ml stimulation, peptides 10^-6 M pre-incubated 30' at 37°C, after 6 hours, mean ± SEM) | EC proliferation, peptide given alone ([3]; without hFN) | hFN-induced phosphorylation of ERK2 in VSMC [4] | EC infiltration of Matrigel plugs (c57BL/6 mice) | VSMC proliferation ([5]; hFN 100 μg/ml stimulation, peptides 10^-6 M, mean ± SEM, NS) | VSMC proliferative response to hFN at 20h ([5]; hFN stimulation, 20h) | tube formation on Matrigel [6] | not cleaved [7]
1 | CC(C)[C@H]1C(=O)N[C@@H](CCCNC(=N)N)C(=O)NCC(=O)N[C@@H](CC(=O)O)C(=O)N[C@H](Cc2ccccc2)C(=O)N1C [c(RGDf[NMe]V)] | +3.19 ± 0.73 fold over basal, ADU | significantly inhibited | slowed down healing | exhibited a retarded repair pattern | +0.6 ± 0.38 fold over basal | did not affect EC proliferation | decreased such activation | 0.185 ± 0.027 fold over VEGF alone | +0.9 ± 0.09 fold over basal | induced an attenuation of such proliferative response | 14.11 ± 3.9 branches per 10000 μm^2 | 
2 | c(RGDf[NMe]V) |  |  |  |  |  |  |  |  |  |  |  | After 24h of incubation chromatogram and mass profiles failed to identify any degradation product
